Results as given in article PMC12326976 (Antimicrobial Agents and Chemotherapy, 2025).
Bridge positions count the residues as written; N and C are the ends. Ends that are not written are not given here. I, II: the chains in the order shown.

What was measured:
H1N1 virus = assay: Viral attachment assay, H1N1 on MDCK cells; type: cell-based, influenza H1N1 virus
Method: (§1) Viruses (H1N1 or rhinovirus A1) were treated with DMEM, 4H30 (25 µg mL^−1), or an influenza neutralization antibody at room temperature for 30 min and then added to cells for attachment at 4°C for 1 h. After washing the unbound virus, the attached virus on cells was measured by RT-qPCR. At least two experiments with biological duplication samples were included for each treatment.
MDCK cells were treated by ChABC (Sigma, Cat^# C2905, 1 U mL^−1), Hase I–III (Sigma, Cat^# H3917, 100 mU mL^−1), and Hase II (Sigma, Cat^# H6515, 100 mU mL^−1) at 37°C for 2 h in the buffer according to the manufacturer’s instruction. After washing cells with PBS, MEM or 4H30 (25 µg mL^−1) was added to cells for 30 min incubation, and then cells were washed with PBS. H1N1 (MOI = 1.0) was added to cells for attachment at 4°C for 1 h. The unbound virus was washed with PBS. The concentration of the attached virus was measured by RT-qPCR.

MDCK cells = assay: Cytotoxicity MTT assay in MDCK cells; type: cell-based, canine; details: 24 h incubation, Fig. 1f
Method: Cytotoxicity of peptides was determined by detecting 50% cytotoxic concentration (CC50) using a tetrazolium-based colorimetric MTT assay ([27]). Cells were seeded in a 96-well cell culture plate at an initial density of 4 × 10^4 cells per well in MEM, supplemented with 10% FBS and incubated overnight. Cell culture media were removed, and then MEM supplemented with various concentrations of peptides and 1% FBS was added to each well. After 24 h incubation at 37°C, the MTT solution (5 mg mL^−1, 10 µL per well) was added to each well for incubation at 37°C for 4 h. Then, 100 µL of 10% SDS in 0.01M HCl was added to each well. After further incubation at room temperature with shaking overnight, the plates were read at OD570 using the VictorTM X3 Multilabel Reader (PerkinElmer, USA). Cell culture wells without peptides were used as the experiment control, and the medium was a blank control.

Influenza HA = Influenza HA (Influenza A virus, UniProt C3W5S1); assay: ELISA binding assay, HA; details: 4H30 1 µg coated, HA 100 ng, anti-His antibody, Fig. 2a
Method: Peptides (1.0 µg per well) were dissolved in H2O. Influenza HA, NA (Sino, Cat^# 11058-V07B), or LDLR (Sino, Cat^# 10231-H081-50, 100 ng) dissolved in PBS was coated onto ELISA plates, incubated at 4°C overnight, and blocked with BSA at 4°C overnight. HA or VP1 was added to wells for binding and then determined by incubation with goat anti-His-HRP (Invitrogen, Cat^# R93125, 1: 2,000) at 37°C for 30 min. The reaction was developed by adding 100 µL of the TMB single solution (Life Technologies, Cat^# 002023) for 15 min at 37°C and stopped with 50 µL of 1 M H2SO4. Readings were obtained in an ELISA plate reader (Victor 1420 Multilabel Counter; PerkinElmer) at 450 nm.

[1] = tested on: neuraminidase activity of H1N1 virus; assay: Viral neuraminidase assay (NA-STAR); type: biochemical, influenza H1N1 virus; details: 4H30 50 and 12.5 µg mL^−1, 1 h, compared to zanamivir, Fig. S3
Method: Fig. S3. […] H1N1 virus was treated with MEM, zanamivir (5 μM and 1.25 μM), and 4H30 (50 μg mL^−1and 12.5 μg mL^−1) for 1 h. The neuraminidase activity was analysed using the Invitrogen NA-STAR INFLUENZA NIRD REAGENT (Cat^# 4374348). Data are presented as mean ± SD of indicated biological samples.

rhinovirus A1 [2] = type: cell-based
rhinovirus A1 [3] = type: cell-based; remark: listed apart in the source
rhinovirus A1 [4] = assay: Viral attachment assay, rhinovirus A1 on RD cells; type: cell-based; details: virus treated with 4H30, attachment at 4°C, Fig. 4d
Method: as §1

rhinovirus A1 [5] = type: cell-based; remark: listed apart in the source
rhinovirus A1 [6] = assay: Rhinovirus A1 in H1-Hela cells; type: cell-based; details: 4H30 25 μg mL^−1, viral RNA copies in cells at 16 hpi, Fig. S6a
Method: (§2) Fig. S6. […] H1-Hela cells are the standard cell model for efficient Rhinovirus A16 (RV-A16) replication. RV-A1 (a) or RV-A16 (b) was treated with 4H30 (25 μg mL^−1) for one hour of infection and then the infectious media were replaced with MEM with 4H30 for viral culture. Viral RNA copies in cells were measured at 16 hpi. Virus in MEM was the control. No viral infection was the mock control. Data are presented as mean ± SD of indicated biological samples.

rhinovirus A16 = assay: Rhinovirus A16 in H1-Hela cells; type: cell-based; details: 4H30 25 μg mL^−1, viral RNA copies in cells at 16 hpi, Fig. S6b
Method: as §2

rhinovirus A1 [7] = assay: Anti-rhinovirus assay in nasal organoids; type: cell-based; details: 4H30 25 µg mL^−1; viral loads in supernatants at 24, 48 and 72 hpi; RT-qPCR; Fig. 5b
Method: Organoid culture was established according to previous studies ([28], [29]). When the cells differentiated into mature 2D airway organoids within 12–14 days, the 2D organoids were ready for antiviral experiments. Rhinovirus (5000 TCID50) was mixed with peptide (25 µg mL^−1) or without peptides in culture media for organoid infection. After 2 h infection, we removed the infectious media and added fresh media with or without peptides. The supernatants were collected at 2 hpi, 24 hpi, 48 hpi, and 72 hpi to measure the viral loads by RT-qPCR.
Fig 5 4H30 inhibited rhinovirus replication in nasal organoids and cardiomyocytes. (a) Rhinovirus A1 could not replicate efficiently in mice. Rhinovirus (1 × 10^7 TCID50) was intranasally inoculated to mice. Viral RNAs were measured on day 1, day 2, and day 3 post-infection. […] (c) Rhinovirus A1 (0.01 MOI) could effectively replicate in cardiomyocytes. […] Viral RNAs in the cell supernatants were measured by RT-qPCR at the indicated time points. Data are presented as mean ± SD of indicated biological samples.

[8] = mouse, in vivo; cited from earlier work

Sequence of Influenza HA (C3W5S1 entry or part of it, added parts left off): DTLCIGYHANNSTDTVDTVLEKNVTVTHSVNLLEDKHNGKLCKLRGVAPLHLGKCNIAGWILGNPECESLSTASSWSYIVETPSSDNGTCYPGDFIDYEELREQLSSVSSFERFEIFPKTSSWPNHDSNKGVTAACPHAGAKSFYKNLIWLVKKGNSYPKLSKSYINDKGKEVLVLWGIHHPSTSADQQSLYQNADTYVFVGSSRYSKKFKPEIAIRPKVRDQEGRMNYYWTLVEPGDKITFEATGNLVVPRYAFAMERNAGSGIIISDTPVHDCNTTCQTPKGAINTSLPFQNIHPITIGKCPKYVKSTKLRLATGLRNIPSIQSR

I: GAICHPVFCPRRYKQIGTCGLPGTKCCKKPKK / II: GAICHPVFCPRRYKQIGTCGLPGTKCCKKPK / III: GAICHPVFCPRRYKQIGTCGLPGTKCCKKP / IV: GAICHPVFCPRRYKQIGTCGLPGTKCCKKP (amide I:31-IV:C, I:32-II:C, II:31-III:C; cysteines drawn unpaired) [4H30]
H1N1 attachment to MDCK cells (H1N1 virus; 4H30 25 µg mL^−1, attachment at 4°C, RT-qPCR, Fig. 1d): increased the viral attachment to cells | 4H30-induced increase in H1N1 attachment after removal of cellular GAGs (H1N1 virus; MDCK cells treated with Hase and ChABC, 4H30 25 µg mL^−1, attachment at 4°C, Fig. 2d): significantly reduced when cells were treated with enzymes of Hase and ChABC | cytotoxicity in MDCK cells (MDCK cells): did not show noticeable toxicity in MDCK cells | binding to HA protein (Influenza HA): bound to HA protein | effect on neuraminidase activity [1]: did not affect neuraminidase activity | RV-A1 replication, cells (1h-Pre) or virus (Pre-mix) treated before infection (rhinovirus A1 [2]): significantly inhibited viral replication when cells or viruses were treated with 4H30 before viral infection | RV-A1 replication, cells treated after infection (1h-Post and 2h-Post) (rhinovirus A1 [2]): showed reduced antiviral activity when cells were treated after viral infection | antiviral activity after treating rhinovirus and dilution (rhinovirus A1 [2]): did not show antiviral activity against rhinovirus | antiviral activity when added after virus attachment (4H30-Post) (rhinovirus A1 [2]): antiviral activity diminished when rhinovirus was attached to cells at 4 °C and was treated with 4H30 at 1 hpi | antiviral activity when present during viral infection (4H30-Pre) (rhinovirus A1 [2]): showed significant antiviral activity when treating virus during viral infection | rhinovirus entry (rhinovirus A1 [3]): blocked rhinovirus entry on the cell membrane | rhinovirus attachment to RD cells (rhinovirus A1 [4]): reduced rhinovirus attachment to RD cells | rhinovirus release from RD cells (rhinovirus A1 [5]): did not inhibit viral release | inhibition of rhinovirus A1 in H1-Hela cells (rhinovirus A1 [6]): inhibited rhinovirus A1 in H1-Hela cells | inhibition of rhinovirus A16 in H1-Hela cells (rhinovirus A16): did not show antiviral activity against rhinovirus A16 | rhinovirus replication in nasal organoids (rhinovirus A1 [7]): significantly inhibited rhinovirus replication in nasal organoids | toxicity in mice [8]: without causing apparent toxicity
